{
  "source": "patent US7683057B2",
  "about": "“Kinase inhibitor compounds” (Tyrogenex, Inc., priority 2007, dated 2010)",
  "data": [
    {"system": "AMPK (r)", "experiment": "AMPK Biochemical Assay", "design": "species or system rat", "conditions": "compared with sunitinib", "method": "The compounds are assayed for biochemical activity essentially according to the following procedure. In a final reaction volume of 25 μl, AMPK (r) (5-10 mU) is incubated with 32 mM HEPES pH7.4, 0.65 mM DTT, 0.012% Brij-35, 200 μM AMP, 200 μM AMARAASAAALARRR, 10 mM MgAcetate and [(γ-33P-ATP] (specific activity approx. 500 cpm/pmol, concentration as required). The reaction is initiated by the addition of the MgATP mix. After incubation for 40 minutes at room temperature, the reaction is stopped by the addition of 5 μl of a 3% phosphoric acid solution. 10 μl of the reaction is then spotted onto a P30 filtermat and washed three times for 5 minutes in 75 mM phosphoric acid and once in methanol prior to drying and scintillation counting.", "values": [
      {"compound": "Cc1[nH]c(/C=C2\\C(=O)Nc3ccc(F)cc32)c(C)c1C(=O)N[C@@H]1CON(C2CCOCC2)C1=O", "note": "[Example 48, 5-[5-Fluoro-2-oxo-1,2-dihydro-indol-(3Z)-ylidenemethyl]-2,4-dimethyl-1H-pyrrole-3-carboxylic acid [(R)-3-oxo-2-(tetrahydro-pyran-4-yl)-isoxazolidin-4-yl]-amide]", "AMPK inhibitory activities": "significantly less AMPK inhibitory activities than sunitinib"},
      {"compound": "Cc1[nH]c(/C=C2\\C(=O)Nc3ccc(F)cc32)c(C)c1C(=O)N[C@H]1CC[C@@H](C(=O)N2CCOCC2)CC1", "note": "[Example 30, 5-[5-Fluoro-2-oxo-1,2-dihydro-indol-(3Z)-ylidenemethyl]-2,4-dimethyl-1H-pyrrole-3-carboxylic acid [4-(morpholine-4-carbonyl)-cyclohexyl]-amide]", "AMPK inhibitory activities": "significantly less AMPK inhibitory activities than sunitinib"},
      {"compound": "Cc1[nH]c(/C=C2\\C(=O)Nc3ccc(F)cc32)c(C)c1C(=O)N[C@H]1CC[C@@H](C(=O)N2CCCC2)CC1", "note": "[Example 31, 5-[5-Fluoro-2-oxo-1,2-dihydro-indol-(3Z)-ylidenemethyl]-2,4-dimethyl-1H-pyrrole-3-carboxylic acid [4-(pyrrolidine-1-carbonyl)-cyclohexyl]-amide]", "AMPK inhibitory activities": "significantly less AMPK inhibitory activities than sunitinib"},
      {"compound": "Cc1[nH]c(/C=C2\\C(=O)Nc3ccc(F)cc32)c(C)c1C(=O)N[C@H]1CCN(C(=O)C(=O)N(C)C)C1", "note": "[Example 29, 5-[5-Fluoro-2-oxo-1,2-dihydro-indol-(3Z)-ylidenemethyl]-2,4-dimethyl-1H-pyrrole-3-carboxylic acid ((S)-1-dimethylaminooxalyl-pyrrolidin-3-yl)-amide]", "AMPK inhibitory activities": "significantly less AMPK inhibitory activities than sunitinib"},
      {"compound": "Cc1[nH]c(/C=C2\\C(=O)Nc3ccc(F)cc32)c(C)c1C(=O)NC1CS(=O)(=O)CC1O", "note": "(stereo not drawn) [Example 17, 5-[5-Fluoro-2-oxo-1,2-dihydro-indol-(3Z)-ylidenemethyl]-2,4-dimethyl-1H-pyrrole-3-carboxylic acid (4-hydroxy-1,1-dioxo-tetrahydro-thiophen-3-yl)-amide]", "AMPK inhibitory activities": "significantly less AMPK inhibitory activities than sunitinib"},
      {"compound": "Cc1[nH]c(/C=C2\\C(=O)Nc3ccc(F)cc32)c(C)c1C(=O)NC1CCN(C(=O)CO)CC1", "note": "[Example 22, 5-[5-Fluoro-2-oxo-1,2-dihydro-indol-(3Z)-ylidenemethyl]-2,4-dimethyl-1H-pyrrole-3-carboxylic acid [1-(2-hydroxy-acetyl)-piperidin-4-yl]-amide]", "AMPK inhibitory activities": "significantly less AMPK inhibitory activities than sunitinib"},
      {"compound": "Cc1[nH]c(/C=C2\\C(=O)Nc3ccc(F)cc32)c(C)c1C(=O)N[C@H]1CCNC1=O", "note": "[Example 25, 5-[5-Fluoro-2-oxo-1,2-dihydro-indol-(3Z)-ylidenemethyl]-2,4-dimethyl-1H-pyrrole-3-carboxylic acid ((S)-2-oxo-pyrrolidin-3-yl)-amide]", "AMPK inhibitory activities": "significantly less AMPK inhibitory activities than sunitinib"},
      {"compound": "Cc1[nH]c(/C=C2\\C(=O)Nc3ccc(F)cc32)c(C)c1C(=O)N[C@@H]1CCC[C@@H]1C(=O)N1CCCC1", "note": "[Example 36, 5-[5-Fluoro-2-oxo-1,2-dihydro-indol-(3Z)-ylidenemethyl]-2,4-dimethyl-1H-pyrrole-3-carboxylic acid [(1R,2S)-2-(pyrrolidine-1-carbonyl)-cyclopentyl]-amide]", "AMPK inhibitory activities": "significantly less AMPK inhibitory activities than sunitinib"}
    ]},
    {"system": "AMPK", "experiment": "not given", "conditions": "proteomic study, literature; cited from earlier work", "values": [
      {"compound": "Cc1[nH]c(/C=C2\\C(=O)Nc3ccccc32)c(C)c1CCC(=O)O", "note": "[SU6668]", "inhibition of AMPK": "inhibits"}
    ]}
  ]
}
